Experimental findings from patent EP3755703B1, “N-(PHENYL)-2-(PHENYL)PYRIMIDINE-4-CARBOXAMIDE DERIVATIVES AND RELATED COMPOUNDS AS HPK1 INHIBITORS FOR TREATING CANCER” (Incyte Corporation, priority 2018, dated 2019) are described below.

For this assay, the target named is T1, HPK1 (Homo sapiens, UniProt Q92918).
T1 construct: purchased SignalChem M23-11G
T1 sequence (Q92918 1-346 limits assumed): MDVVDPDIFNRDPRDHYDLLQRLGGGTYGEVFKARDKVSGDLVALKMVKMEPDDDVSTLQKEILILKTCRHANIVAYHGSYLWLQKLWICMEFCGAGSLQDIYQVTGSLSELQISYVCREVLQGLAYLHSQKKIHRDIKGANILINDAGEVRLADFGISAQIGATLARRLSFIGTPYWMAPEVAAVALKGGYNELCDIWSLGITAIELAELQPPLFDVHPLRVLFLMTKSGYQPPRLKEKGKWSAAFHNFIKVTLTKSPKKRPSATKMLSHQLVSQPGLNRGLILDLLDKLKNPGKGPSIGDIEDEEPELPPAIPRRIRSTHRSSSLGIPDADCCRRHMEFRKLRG
Put plainly: HPK1 Kinase Binding Assay. The settings on record: LanthaScreen tracer 222, one hour incubation at 25 °C.

Structures are written as SMILES.

The Ki is a dissociation constant, usually derived from enzyme kinetics or from competition with a known ligand. Higher therefore signals weaker binding. Turning to `CCOc1cccc(F)c1-c1nccc(C(=O)Nc2ccc(-c3cnccc3C#N)cc2N2C[C@@H](N)C[C@H]2CO)n1` [Example 98, N-(2-((2S,4S)-4-Amino-2-(hydroxymethyl)pyrrolidin-1-yl)-4-(4-cyanopyridin-3-yl)phenyl)-2-(2-ethoxy-6-fluorophenyl)pyrimidine-4-carboxamide], the Ki was < 100 nM.

Consider `COc1cccc(F)c1-c1nccc(C(=O)Nc2ccc(-c3cnccc3C#N)cc2N2C[C@]3(CO)C[C@H]2CN3C)n1` [Example 99, N-(4-(4-Cyanopyridin-3-yl)-2-((1S,4S)-4-(hydroxymethyl)-5-methyl-2,5-diazabicyclo [2.2.1]heptan-2-yl)phenyl)-2-(2-fluoro-6-methoxyphenyl)pyrimidine-4-carboxamide], for which the Ki was < 100 nM.

Take `COc1cccc(F)c1-c1nccc(C(=O)Nc2ccc(-c3cnccc3C#N)cc2N2CCO[C@H](CO)C2)n1` [Example 100, (S)-N-(4-(4-Cyanopyridin-3-yl)-2-(2-(hydroxymethyl)morpholino)phenyl)-2-(2-fluoro-6-methoxyphenyl)pyrimidine-4-carboxamide]: the Ki is < 100 nM.

`COc1cccc(F)c1-c1nccc(C(=O)Nc2ccc(-c3cnccc3C#N)cc2N2CCO[C@@H](CN(C)C)C2)n1` [Example 101, (S)-N-(4-(4-Cyanopyridin-3-yl)-2-(2-((dimethylamino)methyl)morpholino)phenyl)-2-(2-fluoro-6-methoxyphenyl)pyrimidine-4-carboxamide]: the Ki was < 100 nM.

With `COc1cccc(F)c1-c1nccc(C(=O)Nc2ccc(-c3cnccc3C#N)cc2N2CCO[C@H](CC#N)C2)n1` [Example 102, (R)-N-(2-(2-(Cyanomethyl)morpholino)-4-(4-cyanopyridin-3-yl)phenyl)-2-(2-fluoro-6-methoxyphenyl)pyrimidine-4-carboxamide], the Ki is < 100 nM.

Take `COc1cccc(F)c1-c1nccc(C(=O)Nc2ccc(-c3cnccc3C#N)cc2N2CCN3C(=O)OC[C@H]3C2)n1` [Example 103, (R)-N-(4-(4-Cyanopyridin-3-yl)-2-(3-oxotetrahydro-3H-oxazolo[3,4-a]pyrazin-7(1H)-yl)phenyl)-2-(2-fluoro-6-methoxyphenyl)pyrimidine-4-carboxamide]: the Ki is < 100 nM.

As to `COc1cccc(F)c1-c1nccc(C(=O)Nc2cc(F)ccc2N2CCN[C@H](CO)C2)n1` [Example 104, (S)-N-(5-Fluoro-2-(3-(hydroxymethyl)piperazin-1-yl)phenyl)-2-(2-fluoro-6-methoxyphenyl)pyrimidine-4-carboxamide], the Ki was < 100 nM.

For `COCC1CN(c2cc(-c3cnccc3C#N)ccc2NC(=O)c2ccnc(-c3c(F)cccc3OC)n2)C1` [Example 105, N-(4-(4-Cyanopyridin-3-yl)-2-(3-(methoxymethyl)azetidin-1-yl)phenyl)-2-(2-fluoro-6-methoxyphenyl)pyrimidine-4-carboxamide], the Ki is < 100 nM.

On to `COc1cccc(F)c1-c1nccc(C(=O)Nc2ccc(-c3cnccc3C#N)cc2N2CC[C@H]2CO)n1` [Example 106, (S)-N-(4-(4-Cyanopyridin-3-yl)-2-(2-(hydroxymethyl)azetidin-1-yl)phenyl)-2-(2-fluoro-6-methoxyphenyl)pyrimidine-4-carboxamide], for which the Ki was < 100 nM.

As to `COc1cccc(F)c1-c1nccc(C(=O)Nc2ccc(-c3cnccc3C#N)cc2N2CC[C@@H]2CN(C)C)n1` [Example 107, (R)-N-(4-(4-Cyanopyridin-3-yl)-2-(2-((dimethylamino)methyl)azetidin-1-yl)phenyl)-2-(2-fluoro-6-methoxyphenyl)pyrimidine-4-carboxamide], the Ki is < 100 nM.

Consider `COc1cccc(F)c1-c1nccc(C(=O)Nc2ccc(-c3cnccc3C#N)cc2N2CCN(C)CC2)n1` [Example 108, N-(4-(4-Cyanopyridin-3-yl)-2-(4-methylpiperazin-1-yl)phenyl)-2-(2-fluoro-6-methoxyphenyl)pyrimidine-4-carboxamide], for which the Ki was < 100 nM.

For `COc1cccc(F)c1-c1nccc(C(=O)Nc2ccc(-c3cnccc3C#N)cc2N2CCN(CCO)CC2)n1` [Example 109, N-(4-(4-Cyanopyridin-3-yl)-2-(4-(2-hydroxyethyl)piperazin-1-yl)phenyl)-2-(2-fluoro-6-methoxyphenyl)pyrimidine-4-carboxamide], the Ki is < 100 nM.

Take `COc1cccc(F)c1-c1nccc(C(=O)Nc2cc(F)c(C(C)C)cc2N2CCN[C@H](CO)C2)n1` [Example 110, (S)-N-(5-Fluoro-2-(3-(hydroxymethyl)piperazin-1-yl)-4-isopropylphenyl)-2-(2-fluoro-6-methoxyphenyl)pyrimidine-4-carboxamide]: the Ki is < 100 nM.
